Experiments:
[1] = test system: lipid peroxide formation in rat brain tissue homogenate; assay: Activity to inhibit lipid peroxide formation in rat brain tissue homogenate (TBA method); format: biochemical, rat (male SD); settings: 10^-5 M; n = 3, mean; 5% brain homogenate, pH 7.4, 37° C., 1 hour
Procedure: Activity to inhibit lipid peroxide formation in rat brain tissue homogenate: Male SD rats (12-week-old) were subjected to exsanguination under anesthesia with pentobarbital, then the brain was excised. The brain tissue was homogenized in a phosphate buffer (pH 7.4) to prepare a 5% homogenate. After incubation of the homogenate at 37° C. for 1 hour, the amount of lipid peroxides formed therein was determined by the thiobarbituric acid (TBA) method in accordance with the report of Ohkawa et al. on Analytical Biochemistry, 95, 351, (1979). The test drug was added to the 5% homogenate before incubation so as to make the final concentration to be 10^-5 M. The activity to inhibit the formation of lipid peroxide was judged by comparing the amount of the lipid peroxide in the treated group with that of the reference group to which was added the solvent (DMSO), and shown by % inhibition.

[2] = test system: mice; assay: Acute toxicity in mice; format: in vivo; settings: for sedation and ptosis: six mice per group
Procedure: Male Crj-ICR mice (4-week-old, 21 to 26 g) were used. The animals, divided into groups, each consisting of six mice, were administered orally with compounds (4-b, 4-1) at the dosages of 300 and 1000 mg/kg, respectively. Then, each group was housed in a cage and observed for 24 hours.
The test drugs were suspended in gum arabic and administered at a volume of 0.1 ml/10 g.

[3] = test system: rat hearts; assay: Activity to inhibit occurrence of ventricular arrhythmia during coronary artery occlusion-reperfusion in rat hearts; format: in vivo, rat (male SD); design: Ventricular fibrillation, incidence / Ventricular tachycardia, incidence: unit not given here; settings: for Ventricular fibrillation, incidence / Ventricular tachycardia, incidence: (10 min.) after reperfusion; for Ventricular fibrillation, incidence / Ventricular tachycardia, incidence / Ventricular fibrillation, duration / Ventricular tachycardia, duration: average ±SEM; for Mortality: killed animals/test animals; for mortality due to VF (in words) / occurrence of arrhythmia (in words) / period of time during which arrhythmia lasted (in words) / frequency of occasional PVCs (in words): 10 mg/kg; for frequency of occasional PVCs (in words): vs vehicle around 10 times/minute; for effect on arrhythmia (in words): oral
From the text: Activity to inhibit occurrence of ventricular arrhythmia during coronary artery occlusion-reperfusion in rat hearts
Male SD rats (9- to 13-week old, 250 to 370 g) were used. The animals were subjected to thoractonomy under artificial respiration while anesthesia was maintained by administering pentobarbital. […] By recording standard limb lead II electrocardiograms, occurrence of ventricular arrhythmia was examined. […]
Incidences of ventricular fibrillation and ventricular tachycardia are shown by the percentage of the number of animals presenting the symptoms relative to the number of animals subjected to the test, and the duration of the symptoms was shown by average ±SEM in seconds. Extrasystole is shown by the number of systole/min., and the mortality is shown by the percentage of the number of killed animals relative to the number of test animals.

Compound: CCCCCCCCCCCCCCOc1ccc(C2=C(O)CN(C)C2=O)cc1 [Compound 4-a]
- Inhibition rate of lipid peroxide formation [1]: 97.9%

Compound: CCCCCCCCCCCCOc1ccc(C2=C(O)CN(C)C2=O)cc1 [Compound 4-b, N-methyl-3-(4-dodecyloxyphenyl)-4-hydroxy-3-pyrrolin-2-one]
- Inhibition rate of lipid peroxide formation [1]: 97.9%
- time to recovery from sedation and ptosis ([2]; oral, 300 and 1000 mg/kg): ≤ 3 h
- deaths ([2]; oral, 300 and 1000 mg/kg, 24-hour observation): no test animals of either group were killed
- sedation and ptosis ([2]; oral, 300 and 1000 mg/kg): observed on half number of the test animals

Compound: CCCCCCCCCCCCOc1ccc(C2=C(O)CN(CC(C)C)C2=O)cc1 [Compound 4-c]
- Inhibition rate of lipid peroxide formation [1]: 100%

Compound: CCCCCCCCCCCCOc1ccc(C2=C(O)CN(CCCCCCCCCCCC)C2=O)cc1 [Compound 4-d]
- Inhibition rate of lipid peroxide formation [1]: 100%

Compound: CCCCCCCCCCCCOc1ccc(C2=C(O)CN(c3ccccc3)C2=O)cc1 [Compound 4-e]
- Inhibition rate of lipid peroxide formation [1]: 100%

Compound: CCCCCCCCCCCCOc1ccc(C2=C(O)CN(Cc3ccccc3)C2=O)cc1 [Compound 4-f]
- Inhibition rate of lipid peroxide formation [1]: 75.5%

Compound: CCCCCCCCCCCCOc1ccc(C2=C(O)CN(CCc3ccccc3)C2=O)cc1 [Compound 4-g]
- Inhibition rate of lipid peroxide formation [1]: 100%

Compound: CCCCCCCCCCCCOc1ccc(C2=C(O)CN(CCCc3ccccc3)C2=O)cc1 [Compound 4-h]
- Inhibition rate of lipid peroxide formation [1]: 100%

Compound: CCCCCCCCCCCCOc1ccc(C2=C(O)CN(Cc3ccsc3)C2=O)cc1 [Compound 4-i]
- Inhibition rate of lipid peroxide formation [1]: 89.4%

Compound: CCCCCCCCCCCCOc1ccc(C2=C(O)CN(Cc3ccc(C(=O)OC)cc3)C2=O)cc1 [Compound 4-j]
- Inhibition rate of lipid peroxide formation [1]: 52.8%

Compound: CCCCCCCCCCCCOc1ccc(C2=C(O)CN(Cc3ccc(C(=O)O)cc3)C2=O)cc1 [Compound 4-k]
- Inhibition rate of lipid peroxide formation [1]: 63.8%

Compound: CCCCCCCCCCCCOc1ccc(C2=C(O)CN(Cc3cc(OC)c(OC)c(OC)c3)C2=O)cc1 [Compound 4-l]
- Inhibition rate of lipid peroxide formation [1]: 96.7%
- deaths ([2]; mouse, in vivo): no test animals of either group were killed
- time to recovery from sedation and ptosis ([2]; oral, 300 and 1000 mg/kg): ≤ 3 h
- sedation and ptosis ([2]; oral, 300 and 1000 mg/kg): observed on half number of the test animals
- Extrasystole ([3]; 3 mg/Kg): 5.4 ± 1.1 times/min.
- Ventricular fibrillation, incidence ([3]; 3 mg/Kg): 0.8 ± 0.4
- Ventricular tachycardia, incidence ([3]; 3 mg/Kg): 3.5 ± 0.8
- Ventricular fibrillation, duration ([3]; 3 mg/Kg): 1.7 ± 1.2 s
- Ventricular tachycardia, duration ([3]; 3 mg/Kg): 7.1 ± 2.2 s
- Mortality ([3]; 3 mg/Kg): 0/8
- mortality due to VF (in words) [3]: low
- occurrence of arrhythmia (in words) [3]: suppressed remarkably
- period of time during which arrhythmia lasted (in words) [3]: shortened
- frequency of occasional PVCs (in words) [3]: significantly less

Compound: CCCCCCCCCCCCOc1ccc(C2=C(O)CN(Cc3c(C)c(OC)c(C)c(C)c3OC)C2=O)cc1 [Compound 4-m]
- Inhibition rate of lipid peroxide formation [1]: 100%

Compound: CCCCCCCCCCCCOc1ccc(C2=C(O)CN(Cc3ccc(Cl)cc3)C2=O)cc1 [Compound 4-n]
- Inhibition rate of lipid peroxide formation [1]: 100%

Compound: CCCCCCCCCCCCCCCCCCOC1=C(O)CN(Cc2cc(OC)c(OC)c(OC)c2)C1=O [Compound 4-p]
- Extrasystole ([3]; 10 mg/Kg): 3.3 ± 0.7 times/min.
- Ventricular fibrillation, incidence ([3]; 10 mg/Kg): 0.9 ± 0.3
- Ventricular tachycardia, incidence ([3]; 10 mg/Kg): 4.1 ± 1.2
- Ventricular fibrillation, duration ([3]; 10 mg/Kg): 2.1 ± 1.3 s
- Ventricular tachycardia, duration ([3]; 10 mg/Kg): 7.3 ± 2.4 s
- Mortality ([3]; 10 mg/Kg): 0/9
- mortality due to VF (in words) [3]: low
- occurrence of arrhythmia (in words) [3]: suppressed remarkably
- period of time during which arrhythmia lasted (in words) [3]: shortened
- frequency of occasional PVCs (in words) [3]: significantly less

Compound: O=C1O[C@H]([C@@H](O)CO)C(O)=C1O [Vitamin C, reference compound]
- Inhibition rate of lipid peroxide formation [1]: -71.6%
- Extrasystole ([3]; 50 mg/kg): 11.0 ± 0.8 times/min.
- Ventricular fibrillation, incidence ([3]; 50 mg/kg): 5.4 ± 0.8
- Ventricular tachycardia, incidence ([3]; 50 mg/kg): 9.5 ± 1.8
- Ventricular fibrillation, duration ([3]; 50 mg/kg): 74.1 ± 36.0 s
- Ventricular tachycardia, duration ([3]; 50 mg/kg): 12.0 ± 2.9 s
- Mortality ([3]; 50 mg/kg): 1/12
- effect on arrhythmia (in words) ([3]; 50 mg/kg): no significant effect

Compound: Vitamin E [reference compound]
- Inhibition rate of lipid peroxide formation [1]: 44.9%
- Extrasystole ([3]; 50 mg/kg): 7.0 ± 4.1 times/min.
- Ventricular fibrillation, incidence ([3]; 50 mg/kg): 2.0 ± 0.7
- Ventricular tachycardia, incidence ([3]; 50 mg/kg): 3.7 ± 1.5
- Ventricular fibrillation, duration ([3]; 50 mg/kg): 43.4 ± 36.0 s
- Ventricular tachycardia, duration ([3]; 50 mg/kg): 22.3 ± 9.7 s
- Mortality ([3]; 50 mg/kg): 1/10
- effect on arrhythmia (in words) ([3]; 50 mg/kg): no significant effect

Reference: patent US4925868A, “4-Hydroxy-3-pyrrolin-2-ones and treatment of circulatory disorders therewith” (Takeda Chemical Industries, Ltd., priority 1986, dated 1990)
